Source: patent US20060247311A1, “Methods for treating lower urinary tract disorders using alpha2delta subunit calcium channel modulators with smooth muscle modulators” (priority 2003, published 2006)
Several values for one entry are separate records, joined by “and”; a condition that tells them apart may be missing. Equal values may be shown once.

Columns and labels:
[1] = system: α2δ subunit of calcium channels; details: Bryans et al. (1999); cited from earlier work
in vivo = details: female, rat, iv; for AUC(0-t): AUC0-t (Mean); for Cmax: Cmax (Mean); for Vd: Vz (Mean); for half-life: t1/2 (Mean)
[2] = system: reduction in bladder capacity following continuous infusion of dilute acetic acid; test: Dilute acetic acid model in cats (bladder capacity, voiding efficiency); type: in vivo; details: cat, gabapentin 30 mg/kg dose alone
Procedure: The objective of this study was to determine the ability of an α2δ subunit calcium channel modulator in combination with a smooth muscle modulator to reverse the reduction in bladder capacity seen following continuous infusion of dilute acetic acid in a cat model, a commonly used model of overactive bladder.
Alpha-chloralose anesthetized (50-100 mg/kg) normal female cats (2.5-3.5 kg; Harlan) were utilized in this study.
Animals were dosed by volume of injection=body weight in kg.
Female cats (2.5-3.5 kg; Harlan) had their food removed the night before the experiment. The following morning, the cat was anesthetized with isoflurane and prepped for surgery using aseptic technique. Polyethylene catheters were surgically placed to permit the measurement of bladder pressure, urethral pressure, arterial pressure, respiratory rate as well as for the delivery of drugs. Fine wire electrodes were implanted alongside the external urethral anal sphincter. Following surgery, the cats were slowly switched from the gas anesthetic isoflurane (2-3.5%) to alpha-chloralose (50-100 mg/kg). During control cystometry, saline was slowly infused into the bladder (0.5-1.0 m/min) for 1 hour. […] After assessing the cystometric variables under these baseline conditions, the effects of test drug(s) on micturition were determined via a 3-5 point dose response protocols. […]

[3] = system: reduction in bladder capacity following continuous infusion of dilute acetic acid; test: Dilute acetic acid model, acute anesthetized in vivo model (bladder capacity by cystometry); details: rat, isobologram construction, i.v.; both drugs alone and low-dose combinations
From the text: Urethane anesthetized (1.2 g/kg) normal female rats were utilized in this study.
Animal Preparation: Female rats (250-300 g body weight) were anesthetized with urethane (1.2 g/kg) and a saline-filled catheter (PE-50) was inserted into the jugular vein for intravenous drug administration. […] The abdominal cavity was moistened with saline and closed by covering with a thin plastic sheet in order to maintain access to the bladder for emptying purposes. Fine silver or stainless steel wire electrodes were inserted into the external urethral sphincter (EUS) percutaneously for electromyography (EMG).
Following 30 minutes of AA infusion, 3 vehicle injections were made at 20 minute intervals to determine vehicle effects, if any.
P<0.050 was considered significant.

[4] = preclinical and clinical studies, in contrast to gabapentin itself, cited from earlier work
[5] = system: bladder instability and bladder capacity in SCI rats; details: SCI rats (Cheng et al., 1995); cited from earlier work
[6] = 100 mg/kg, gabapentin in rat plasma after 100 mg/kg gabapentin i.v., alone (Gab) or with 3 mg/kg oxybutynin (Com), group Mean, outliers excluded
[7] = 100 mg/kg, gabapentin in rat plasma after 100 mg/kg gabapentin i.v., alone (Gab) or with 3 mg/kg oxybutynin (Com), group Mean
[8] = female, rat, in vivo, iv, 3 mg/kg

CC(C)C[C@H](CN)CC(=O)O [Pregabalin, (S)-(3-aminomethyl)-5-methylhexanoic acid]
binding affinity for the α2δ subunit of calcium channels compared with gabapentin [1]: even higher binding affinity

NCC1(CC(=O)O)CCCCC1 [gabapentin, 1-(aminomethyl) cyclohexaneacetic acid]
AUC(0-t) (in vivo; [6]): 158 µg·h/mL
AUC(0-inf) (in vivo; 100 mg/kg, AUC0-∞ (Mean), gabapentin in rat plasma after 100 mg/kg gabapentin i.v., alone (Gab) or with 3 mg/kg oxybutynin (Com), group Mean): 270 µg·h/mL
AUC(0-inf) (in vivo; 100 mg/kg, AUC0-∞, gabapentin in rat plasma after 100 mg/kg gabapentin i.v., alone (Gab) or with 3 mg/kg oxybutynin (Com), individual animals): 325 µg·h/mL
clearance (in vivo; 100 mg/kg, CL (Mean), gabapentin in rat plasma after 100 mg/kg gabapentin i.v., alone (Gab) or with 3 mg/kg oxybutynin (Com), group Mean): 6.52 mL/min/kg
clearance (in vivo; 100 mg/kg, CL, gabapentin in rat plasma after 100 mg/kg gabapentin i.v., alone (Gab) or with 3 mg/kg oxybutynin (Com), individual animals): 5.12 mL/min/kg
Cmax (in vivo; [6]): 98600 ng/mL
Tmax (in vivo; 100 mg/kg, Tmax, gabapentin in rat plasma after 100 mg/kg gabapentin i.v., alone (Gab) or with 3 mg/kg oxybutynin (Com), individual animals): 15 min
Vd (in vivo; [7]): 1.24 L/kg
half-life (in vivo; [7]): 128 min
effect on bladder capacity [2]: no significant effect
common maximal effect / target value, return to % of saline control bladder capacity (individual responses) [3]: 31 % of saline control
common maximal effect, return to % of saline control bladder capacity (group mean data) [3]: 43 % of saline control
AUC0-∞ (gabapentin in rat plasma after 100 mg/kg gabapentin i.v., alone (Gab) or with 3 mg/kg oxybutynin (Com), individual animals, listed as Gab): 1.37e+07 ng·min/mL and 2.19e+07 ng·min/mL and 1.44e+07 ng·min/mL

CC(OC(=O)NCC1(CC(=O)O)CCCCC1)OC(=O)C(C)C (stereo not drawn) [XP13512]
blood levels of gabapentin across a broad range of oral doses ([4]; oral): dose proportional blood levels of gabapentin
absorption from the large intestine [4]: absorbed efficiently from the large intestine

COc1cc(CNC(=O)CCCC/C=C/C(C)C)ccc1O [capsaicin]
bladder capacity to voiding [5]: not effect bladder capacity to voiding
bladder instability [5]: reduce bladder instability

CCN(CC)CC#CCOC(=O)C(O)(c1ccccc1)C1CCCCC1 (stereo not drawn) [oxybutynin, 4-diethylaminio-2-butynyl phenylcyclohexyglycolate]
Tmax (in vivo; 3 mg/kg): 15 min
AUC(0-t) (in vivo; 3 mg/kg): 0.335 µg·h/mL
AUC(0-inf) (in vivo; 3 mg/kg, AUC0-∞ (Mean)): 0.41 µg·h/mL
clearance (in vivo; 3 mg/kg, CL (Mean)): 134 mL/min/kg
Cmax (in vivo; 3 mg/kg): 329 ng/mL
Vd (in vivo; 3 mg/kg): 10.1 L/kg
half-life (in vivo; 3 mg/kg): 54 min
common maximal effect / target value, return to % of saline control bladder capacity (individual responses) [3]: 31 % of saline control
common maximal effect, return to % of saline control bladder capacity (group mean data) [3]: 43 % of saline control
AUC0-t (Mean) [8]: 144 ng·min/mL
AUC0-∞ (Mean) [8]: 289 ng·min/mL
Vz (Mean) [8]: 1310.999 L/kg
